No end group written: not given here.
How the values were obtained:
[1] = test system: anterior pituitary GHRH-R mRNA; assay: Anterior pituitary GHRH-R mRNA levels after in vivo GHRH; design: species or system rat; conditions: 2-day in vivo GHRH
Description: (§1) Two-month-old male Sprague Dawley rats (Charles River Canada, St-Constant, QC) were kept in temperature- (22° C.), humidity- (65%) and lighting- (12h cycles; lights on at 0700 h) controlled rooms and had free access to standard rat chow (2018 Tecklad global 18% protein rodent diet, containing 0.23% Na^+ and 0.4% Cl^−; Harlan Tecklad, Madison, Wis.) and tap water. Rats were acclimatized ≈3 days before going on a high-NaCl diet or water deprivation. Rats fed the custom-made high-NaCl diet for 2, 7 or 14 (8% NaCl; Harlan Tecklad) were compared to rats fed the custom-made control diet (0.3% NaCl; Harlan Tecklad). They had free access to water. […] Rats used in the first series of experiments, to quantify GHRH-R mRNA levels following a 8%-NaCl diet or a water deprivation, were housed individually in metabolic cages for the entire duration of intervention. Body weight (BW), food and water intakes, and urine volume were recorded daily, and Na^+ levels were analyzed on the last 24h urine sample before sacrifice. Rats used in the 8%-NaCl diet/GHRH study were housed individually in plastic cages and BW and food intake were recorded daily. […]
Total RNA was extracted as above. […] Membranes were subsequently washed, exposed to films, stripped and rehybridized with GAPDH 28S probes.^33 Quantification of each GHRH-R mRNA transcript (2.5 and 4 kb), GAPDH mRNA and 28S rRNA levels was performed by densitometry. […]

CIC-K1 mRNA = CIC-K1 mRNA levels by real-time RT-PCR in purified thin limb cells after in vivo sc GHRH; design: species or system rat; conditions: 1 mg/kg BW/day sc, 2 days
GHRH-R = target: T1, GHRH-R (Rattus norvegicus, UniProt Q02644); assay: GHRH-induced intracellular cAMP production in freshly dispersed semi-purified thin limb cells (EIA); type: cell-based
T1 construct: endogenous in cells; host or cells: freshly dispersed semi-purified thin limb cells of Henle's loop from the renal medulla of 2-month-old male Sprague Dawley rats
T1 sequence (Q02644 53-423 isoform Q02644-2): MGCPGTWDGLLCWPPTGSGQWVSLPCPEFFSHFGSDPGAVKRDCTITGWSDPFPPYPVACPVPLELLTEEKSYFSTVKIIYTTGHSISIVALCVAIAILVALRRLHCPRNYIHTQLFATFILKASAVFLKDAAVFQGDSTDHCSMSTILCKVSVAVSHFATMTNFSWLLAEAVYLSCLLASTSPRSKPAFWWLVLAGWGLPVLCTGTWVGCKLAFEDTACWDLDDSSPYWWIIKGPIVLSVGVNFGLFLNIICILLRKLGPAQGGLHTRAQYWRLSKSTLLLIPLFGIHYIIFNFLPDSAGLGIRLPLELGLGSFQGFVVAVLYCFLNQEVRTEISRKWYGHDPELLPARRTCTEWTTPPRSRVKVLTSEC
Description: Cell dispersion of minced medullas to obtain semi-purified thin limb cells was performed as previously described.^33 These cells were used immediately for in vitro determination of basal and rGHRH(1-29)NH2-induced cAMP levels or purified by differential centrifugation for immunocytochemistry, using a continuous gradient of Nycodenz. The gradient was prepared as described by Grupp et al.^55 and thin limb cells were recovered in fraction I of the gradient after centrifugation at 1500 g (16° C., 45 min) and washed twice in HEPES-Ringer buffer (430 g, 16° C., 10 min). Cell viability, assessed by the Trypan Blue exclusion method, was around 95%. When purified thin limb cells were cultured, isolation and purification steps were performed under sterile conditions and media containing antibiotics.
Sensitivity to GHRH was assessed in freshly semi-purified thin limb cells^33 from rats fed a 8%-NaCl diet for 2, 7 or 14 days or the control diet. […] Supernatants were used to quantify immunoreactive cAMP levels (non-acetylated method). Pellets were kept frozen for determination of protein content.^59 Optical densities were measured at 450 nm, using a microplate reader (Bio-Rad, model 3550). […]

[2] = 14-day sc administration, cited from earlier work
[3] = Body weight and food intake of rats on 8%-NaCl diet injected with GHRH; type: in vivo, rat; conditions: 2-day 8%-NaCl diet, injected with GHRH or saline
Description: (§2) Two-month-old male Sprague Dawley rats (Charles River Canada, St-Constant, QC) were kept in temperature- (22° C.), humidity- (65%) and lighting- (12h cycles; lights on at 0700 h) controlled rooms and had free access to standard rat chow (2018 Tecklad global 18% protein rodent diet, containing 0.23% Na^+ and 0.4% Cl^−; Harlan Tecklad, Madison, Wis.) and tap water. Rats were acclimatized ≈3 days before going on a high-NaCl diet or water deprivation. Rats fed the custom-made high-NaCl diet for 2, 7 or 14 (8% NaCl; Harlan Tecklad) were compared to rats fed the custom-made control diet (0.3% NaCl; Harlan Tecklad). They had free access to water. Rats deprived of water for 3 or 5 days had free access to 2018 Tecklad rat chow. Rats used in the first series of experiments, to quantify GHRH-R mRNA levels following a 8%-NaCl diet or a water deprivation, were housed individually in metabolic cages for the entire duration of intervention. Body weight (BW), food and water intakes, and urine volume were recorded daily, and Na^+ levels were analyzed on the last 24h urine sample before sacrifice. Rats used in the 8%-NaCl diet/GHRH study were housed individually in plastic cages and BW and food intake were recorded daily. Rats were sacrificed in a block-design fashion between 0900-1130 h, by rapid decapitation. […]

GHRH-R mRNA [4] = assay: GHRH-R mRNA levels by real-time RT-PCR in purified thin limb cells after in vivo sc GHRH; design: species or system rat; conditions: 2 days; for GHRH-R mRNA levels: 1 mg/kg BW/day sc
Description: as §2, with “decapitation. Pituitaries, kidneys and livers were excised immediately and anterior pituitaries and renal medullas dissected out. Tissues were snap-frozen in liquid nitrogen and stored at −80° C. until RNA extraction.” for “decapitation.”
Total RNA from purified thin limb cells was extracted with TRIzol. […] Reverse transcription of 2 μg total RNA was performed using the SuperScript™ II RT kit (Invitrogen) and random hexamer primers, according to the manufacturer's protocol, including RNAse H treatement. mRNA levels of rat GHRH-R and rat GAPDH (internal control) were determined in separate tubes, by real-time PCR, using a 1/150 (GHRH-R) and 1/300 (GAPDH) dilution of the RT product and the reagents from the Quantitect™ SYBR® Green PCR kit (Qiagen, Mississauga, ON, CA), according to the manufacturer's recommendation. […]

[5] = test system: thin limbs of Henle's loop cells; assay: In vivo BrdU immunolabeling (DNA repair/synthesis) in purified thin limb cells; design: species or system rat; conditions: 1 mg/kg BW sc/day, 2 days, 8%-NaCl chow
Description: as §1
BrdU immunolabeling (Roche Diagnostics, Laval, QC, CA) was used to quantify DNA repair/synthesis in purified thin limb cells from rat submitted 2 days to a 8%- or 0.3%-NaCl diet and injected with GHRH or saline. […]

[6] = Serum total IGF-1 levels after in vivo GHRH; design: species or system rat; conditions: high-NaCl fed rats injected with GHRH, 1 mg/kg BW sc/day, 2 days
Description: as §2

GHRH-R mRNA [7] = assay: Renal medulla GHRH-R mRNA levels after in vivo GHRH in high-NaCl fed rats; design: species or system rat; conditions: high-NaCl fed rats injected with GHRH, 1 mg/kg BW sc/day, 2 days
Description: as §1
Total RNA from medullas and purified descending and ascending thin limb cells was extracted with TRIzol (Invitrogen Canada, Burlington, ON). […] Tissue GHRH-R and GAPDH mRNA and cRNA external standard levels were quantified by densitometry. […]

decrease of GHRH-induced cAMP production (GHRH-R; 1 nM and 100 nM, cells from rats fed 2 days 8%-NaCl chow vs control diet): 1.5 fold
loss of sensitivity to GHRH (cAMP production) (GHRH-R; cells from rats fed the high-salt diet for 7 or 14 days): reverted
Substance: rGHRH(1-29)NH2 (HADAIFTSSYRRILGQLYARKLLHEIMNR-NH2) [rat growth hormone-releasing hormone fragment 1-29 amide, synthesized in the applicant's laboratory]
anterior pituitary GHRH-R mRNA levels [1]: No significant regulatory effect
CIC-K1 mRNA levels (CIC-K1 mRNA; 5 other rats): without significantly altering
CICK-1 mRNA levels (CIC-K1 mRNA; subgroup of 3 rats): significantly increased
IGF-I serum levels significantly decreased ([2]; 0.5 mg/kg BW/day): not
IGF-I serum levels ([2]; 1 mg/kg BW/day): significantly decreased
body weight (BW) [3]: No change
food intake [3]: No change
regulation of renal GHRH-R mRNA levels in thin limb cells (GHRH-R mRNA [4]; 0.5 mg/kg BW/day sc, healthy rats, P<0.01): up-regulate
GHRH-R mRNA levels (GHRH-R mRNA [4]; 5 other rats): decreased
GHRH-R mRNA levels (GHRH-R mRNA [4]; subgroup of 3 rats): significantly increased
increase in intensity of mitochondrial BrdU immunofluorescence [5]: ≈ 7 times
increase in the number of ascending thin limb cell nuclei and mitochondria immunolabeled to BrdU ([5]; vs control groups): 5 times
serum total insulin-like growth factor-1 (IGF-1) levels [6]: not modified
GHRH-R mRNA levels in the renal medulla (GHRH-R mRNA [7]): tended to increase
